According to patent US5382586A, “Aryl (or heteroaryl)piperazinylalkylazole derivatives, their preparation and their application as medicaments” (priority 1991, dated 1995):

What was measured:
[1] = system: mice, abstinence syndrome induced by cocaine, diazepam, alcohol or nicotine; assay: light box/dark box test: inhibition of the abstinence syndrome; type: in vivo, mouse; set-up: Time in box, dark (D) / Latent period L-D: unit not given here
Method: The light box/dark box test described by B. Costall et al. (J. Phar. Pharmacol., 1988, 40: 494-500) is used. The mouse is placed in the light zone of a box divided into two compartments, one brightly illuminated, the light box, and the other with little illumination, the dark box.
1) The number of times the mouse stands up on the hind paws in each compartment during a 5 minute period is counted (see Column 1 of Table V).
2) The activity in each compartment is given by counting the number of crossings through the squares which form the divisions of each compartment (see Column 2 of Table V).
3) The time passed in the dark box during the 5 minute counting period is determined (see Column 3 of Table 5).
4) The initial latent period is determined, that is to say the time which elapses after the animal is placed in the light box, at the start of the test, before it enters the dark box (see Column 4 of Table 5).
1) Dependency on a given treatment (diazepam, cocaine, alcohol or nicotine) employing daily administration over a period of 7 or 14 days.
Diazepam: 10 mg/kg i.p. twice per day over a period of 7 days.
Cocaine: 1 mg/kg i.p. over a period of 14 days.
Alcohol: Administered at 8% weight/volume in the drinking water over a period of 14 days. Nicotine: 0.1 mg/kg i.p. twice per day over a period of 7 days.
3) Other different groups receive, in addition to diazepam, cocaine, alcohol or nicotine, a concomitant treatment with products which are the subject of the present invention and, by way of comparison, with buspirone or ipsapirone.
The product described and the doses tested were: 4,5-dichloro-2-methyl-1-{4-[4-(2-pyrimidinyl)-1-piperazinyl]-butyl}-1H-imidazole citrate.
1 μg/kg p.o. twice per day.

[2] = system: conditioned avoidance response in male Wistar rats; assay: conditioned avoidance response test (inhibition of the conditioned avoidance response; anxiolytic/tranquillising activity); type: in vivo, rat (male Wistar); details: rat; for Activity % (inhibition of the conditioned avoidance response): D = 80 mg/kg, p.o., 45 min before test
Method: Male Wistar rats weighing 200 grammes which have been trained to jump over a barrier in an avoidance and escape cage (shuttle box) (Letica, reference LI 910 and LI 2700) within 30 seconds of their being introduced into the cage are used in this test.
The products having an anxiolytic or tranquillising activity suppress the conditioned avoidance response.
Training: day one: 11 trials at 3 minute intervals. Electric shock to the paws after 30 seconds (5 mA, 0.1 s, 10 s).
Days two and three: 2 trials per day, with the selected rats only [sum of the scores for the first day (with the exception of the first trial)>14].
Test day: groups formed by selected rats. Oral administration of the product or the vehicle 45 minutes before the start of the study.

[3] = system: norepinephrine-induced death in rats; assay: norepinephrine antagonism test in rats (antihypertensive activity); type: in vivo, rat (male Wister); details: for Activity % (norepinephrine antagonistic antihypertensive activity): D = 40 mg/kg, i.p., rat, norepinephrine 1.25 mg/kg i.v. after 2 hours
Method: This activity is manifested by the protection of animals before death induced by an intravenous injection of norepinephrine, which produces a hypertensive attack in rats.
Male Wister rats weighing 200 grammes are used in this test. The product to be studied is administered intraperitoneally and 1.25 mg/kg (i.v.) of norepinephrine are administered after 2 hours.
The initial administration dose in these studies is 40 mg/kg (i.p.).

[4] = 24 h after stopping cocaine (alone, or with the named product; Ex. 42 at 1 μg/kg p.o. twice per day)
[5] = during long-term treatment with the agent (doses as E20)
[6] = during long-term treatment with the agent (doses as E20), 5 minute counting period
[7] = during long-term treatment with the agent (doses as E20), number of crossings
[8] = during long-term treatment: cocaine 1 mg/kg i.p. 14 days, diazepam 10 mg/kg i.p. twice per day 7 days, alcohol 8% w/v drinking water 14 days, nicotine 0.1 mg/kg i.p. twice per day 7 days
[9] = 24 h after stopping diazepam (alone, or with the named product; Ex. 42 at 1 μg/kg p.o. twice per day)
[10] = 24 h after stopping alcohol (alone, or with the named product; Ex. 42 at 1 μg/kg p.o. twice per day)
[11] = 24 h after stopping nicotine (alone, or with the named product; Ex. 42 at 1 μg/kg p.o. twice per day)

SMILES: COC(=O)[C@H]1[C@@H](OC(=O)c2ccccc2)C[C@@H]2CC[C@H]1N2C [Cocaine]
- Activity within 5 min period, dark box (D) [1, 4]: 149
- Activity within 5 min period, light box (L) [1, 4]: 10
- Latent period L-D [1, 4]: 2
- Number of times standing erect within 5 min. period, dark box (D) [1, 4]: 122
- Number of times standing erect within 5 min. period, light box (L) [1, 4]: 7
- Time in box, dark (D) [1, 4]: 83
- Latent period L-D [1, 5]: 18
- Number of times standing erect within 5 min. period, dark box (D) [1, 5]: 38
- Time in box, dark (D) [1, 6]: 30
- Activity within 5 min period, dark box (D) [1, 7]: 30
- Activity within 5 min period, light box (L) [1, 7]: 68
- Number of times standing erect within 5 min. period, light box (L) [1, 8]: 60

SMILES: c1cnc(N2CCN(CCCCn3cnc4cccnc43)CC2)nc1 [Example 17, 1-{4-[-4-(2-pyrimidinyl)-1-piperazinyl]-butyl}-3H-imidazo[5,4-b]pyridine]
- Activity % (inhibition of the conditioned avoidance response) [2]: 86%
- ED50 ([2]; po, 0.75 h): 21.9 mg/kg
- Activity % (norepinephrine antagonistic antihypertensive activity) [3]: 0%

SMILES: c1cnc(N2CCN(CCCCn3nnc4ccccc43)CC2)nc1 [Example 19]
- Activity % (inhibition of the conditioned avoidance response) [2]: 99%
- Activity % (norepinephrine antagonistic antihypertensive activity) [3]: 0%

SMILES: CN1C(=O)CN=C(c2ccccc2)c2cc(Cl)ccc21 [Diazepam]
- Activity within 5 min period, dark box (D) [1, 9]: 164
- Activity within 5 min period, light box (L) [1, 9]: 5
- Latent period L-D [1, 9]: 1.8
- Number of times standing erect within 5 min. period, dark box (D) [1, 9]: 146
- Number of times standing erect within 5 min. period, light box (L) [1, 9]: 5
- Time in box, dark (D) [1, 9]: 80
- Latent period L-D [1, 5]: 27
- Number of times standing erect within 5 min. period, dark box (D) [1, 5]: 25
- Time in box, dark (D) [1, 6]: 25
- Activity within 5 min period, dark box (D) [1, 7]: 24
- Activity within 5 min period, light box (L) [1, 7]: 73
- Number of times standing erect within 5 min. period, light box (L) [1, 8]: 70

SMILES: CCO [Alcohol]
- Activity within 5 min period, dark box (D) [1, 10]: 167
- Activity within 5 min period, light box (L) [1, 10]: 6
- Latent period L-D [1, 10]: 2
- Time in box, dark (D) [1, 10]: 84
- Latent period L-D [1, 5]: 28
- Time in box, dark (D) [1, 6]: 28
- Activity within 5 min period, dark box (D) [1, 7]: 28
- Activity within 5 min period, light box (L) [1, 7]: 80
- Number of times standing erect within 5 min. period, dark box (D) ([1]; mouse, in vivo): 22
- Number of times standing erect within 5 min. period, light box (L) ([1]; mouse, in vivo): 72
- Number of times standing erect within 5 min. period, dark box (D) ([1]; mouse, in vivo, po): 147
- Number of times standing erect within 5 min. period, light box (L) ([1]; mouse, in vivo, po): 5

SMILES: c1ccc(CC2=NCCN2)cc1 [Tolazoline, reference compound]
- Activity % (norepinephrine antagonistic antihypertensive activity) [3]: 100%
- ED50 ([3]; Rattus norvegicus, ip, 2 h, read-out: ED50 (norepinephrine antagonistic antihypertensive activity)): 2.97 mg/kg

SMILES: CN1CCC[C@H]1c1cccnc1 [Nicotine]
- Activity within 5 min period, dark box (D) ([1]; mouse, in vivo): 25
- Activity within 5 min period, light box (L) ([1]; mouse, in vivo): 70
- Latent period L-D ([1]; mouse, in vivo): 26
- Number of times standing erect within 5 min. period, dark box (D) ([1]; mouse, in vivo): 23
- Number of times standing erect within 5 min. period, light box (L) ([1]; mouse, in vivo): 66
- Time in box, dark (D) ([1]; mouse, in vivo): 25
- Activity within 5 min period, dark box (D) ([1]; mouse, in vivo, po): 147
- Activity within 5 min period, light box (L) ([1]; mouse, in vivo, po): 14
- Latent period L-D ([1]; mouse, in vivo, po): 2
- Number of times standing erect within 5 min. period, dark box (D) ([1]; mouse, in vivo, po): 125
- Number of times standing erect within 5 min. period, light box (L) ([1]; mouse, in vivo, po): 10
- Time in box, dark (D) ([1]; mouse, in vivo, po): 78

SMILES: O=C1c2ccccc2S(=O)(=O)N1CCCCN1CCN(c2ncccn2)CC1 [Ipsapirone]
- Activity % (inhibition of the conditioned avoidance response) [2]: 98%
- Activity within 5 min period, dark box (D) [1, 10]: 80
- Activity within 5 min period, light box (L) [1, 10]: 36
- Latent period L-D [1, 10]: 10
- Number of times standing erect within 5 min. period, dark box (D) [1, 10]: 75
- Number of times standing erect within 5 min. period, light box (L) [1, 10]: 21
- Time in box, dark (D) [1, 10]: 35
- Activity within 5 min period, dark box (D) [1, 4]: 85
- Activity within 5 min period, light box (L) [1, 4]: 18
- Latent period L-D [1, 4]: 8
- Number of times standing erect within 5 min. period, dark box (D) [1, 4]: 89
- Number of times standing erect within 5 min. period, light box (L) [1, 4]: 11
- Time in box, dark (D) [1, 4]: 62
- Activity within 5 min period, dark box (D) [1, 9]: 88
- Activity within 5 min period, light box (L) [1, 9]: 17
- Latent period L-D [1, 9]: 8
- Number of times standing erect within 5 min. period, dark box (D) [1, 9]: 82
- Number of times standing erect within 5 min. period, light box (L) [1, 9]: 15
- Time in box, dark (D) [1, 9]: 90
- Activity within 5 min period, dark box (D) [1, 11]: 98
- Activity within 5 min period, light box (L) [1, 11]: 18
- Latent period L-D [1, 11]: 3
- Number of times standing erect within 5 min. period, dark box (D) [1, 11]: 84
- Number of times standing erect within 5 min. period, light box (L) [1, 11]: 9
- Time in box, dark (D) [1, 11]: 70
- abstinence syndrome ([1]; induced by alcohol): inhibits the abstinence syndrome
- abstinence syndrome ([1]; induced by diazepam, cocaine and nicotine): maintains the abstinence syndrome

SMILES: O=C1CC2(CCCC2)CC(=O)N1CCCCN1CCN(c2ncccn2)CC1 [Buspirone]
- Activity % (inhibition of the conditioned avoidance response) [2]: 99%
- Activity within 5 min period, dark box (D) [1, 10]: 75
- Activity within 5 min period, light box (L) [1, 10]: 15
- Latent period L-D [1, 10]: 7
- Number of times standing erect within 5 min. period, dark box (D) [1, 10]: 80
- Number of times standing erect within 5 min. period, light box (L) [1, 10]: 18
- Time in box, dark (D) [1, 10]: 62
- Activity within 5 min period, dark box (D) [1, 4]: 90
- Activity within 5 min period, light box (L) [1, 4]: 18
- Latent period L-D [1, 4]: 2
- Number of times standing erect within 5 min. period, dark box (D) [1, 4]: 98
- Number of times standing erect within 5 min. period, light box (L) [1, 4]: 10
- Time in box, dark (D) [1, 4]: 70
- Activity within 5 min period, dark box (D) [1, 9]: 100
- Activity within 5 min period, light box (L) [1, 9]: 12
- Latent period L-D [1, 9]: 2
- Number of times standing erect within 5 min. period, dark box (D) [1, 9]: 88
- Number of times standing erect within 5 min. period, light box (L) [1, 9]: 9
- Time in box, dark (D) [1, 9]: 72
- Activity within 5 min period, dark box (D) [1, 11]: 85
- Activity within 5 min period, light box (L) [1, 11]: 20
- Latent period L-D [1, 11]: 8
- Number of times standing erect within 5 min. period, dark box (D) [1, 11]: 80
- Number of times standing erect within 5 min. period, light box (L) [1, 11]: 12
- Time in box, dark (D) [1, 11]: 65
- abstinence syndrome ([1]; induced by diazepam and cocaine): maintains the abstinence syndrome
- abstinence syndrome ([1]; treatment with alcohol and nicotine stopped): an abstinence syndrome, i.e. anxiogenesis, no longer exists
- inhibition of anxiogenic response parameters ([1]; treatment with alcohol stopped): significantly inhibits only a few anxiogenic response parameters
